Measured values: patent publication US20230293535A1, “ERBB/BTK INHIBITORS” (Dizal (Jiangsu) Pharmaceutical Co., Ltd., priority 2018, published 2023)
pIC50: −log10 of the molar value. Counter-ions that a name gives are not always drawn. Like-named read-outs stand apart in the source and are kept apart here.

Legend:
Assay type in all cases: cell-based
DB cells = experiment: BTK (wt) cell proliferation, DB (CellTiter-Glo, 72 h); conditions: Homo sapiens, DB, DB cells, CellTiter-Glo, read-out: Non-BCR activated DB GI50;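 further: DB cells in 384-well plates given a dilution series of compound, viable cells read by ATP luminescence, growth expressed versus DMSO control after subtracting a time-zero plate reading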
Ba/F3 EGFR ASV ins cells = experiment: Cell proliferation, Ba/F3 EGFR ASV ins (CellTiter-Glo, 72 h); conditions: Ba/F3 EGFR, 72 h;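 further: IL3-independent Ba/F3 cells transduced with EGFR V769_D770insASV, cellular ATP luminescence after compound exposure, growth relative to DMSO control with the day-0 baseline reading subtracted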
OCI-LY-10 cells = experiment: BTK (wt) cell proliferation, OCI-LY-10 (CellTiter-Glo, 72 h); conditions: Homo sapiens, OCI-Ly10, 72 h, OCI-LY-10 cells, 72 h, CellTiter-Glo; read-out: BTK WT OCI-LY-10 GI50;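 further: viable cells quantified via cellular ATP luminescence, proliferation given as percent of DMSO control after subtracting a duplicate plate read at time of dosing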
WT EGFR = molecular target: T1, WT EGFR (Homo sapiens, UniProt P00533); experiment: WT EGFR cellular phosphorylation inhibition in A-431 (hEGF stimulated, MSD); conditions: A431 cells, 4 h compound, then 100 ng/ml hEGF 10 min;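 further: electrochemiluminescence read-out of EGFR Tyr1068 phosphorylation expressed as ratio to total EGFR, cells kept in medium with 1% FBS, compounds tested as a concentration series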
T1 construct: host or cells: A-431
T1 sequence (P00533 25-1210): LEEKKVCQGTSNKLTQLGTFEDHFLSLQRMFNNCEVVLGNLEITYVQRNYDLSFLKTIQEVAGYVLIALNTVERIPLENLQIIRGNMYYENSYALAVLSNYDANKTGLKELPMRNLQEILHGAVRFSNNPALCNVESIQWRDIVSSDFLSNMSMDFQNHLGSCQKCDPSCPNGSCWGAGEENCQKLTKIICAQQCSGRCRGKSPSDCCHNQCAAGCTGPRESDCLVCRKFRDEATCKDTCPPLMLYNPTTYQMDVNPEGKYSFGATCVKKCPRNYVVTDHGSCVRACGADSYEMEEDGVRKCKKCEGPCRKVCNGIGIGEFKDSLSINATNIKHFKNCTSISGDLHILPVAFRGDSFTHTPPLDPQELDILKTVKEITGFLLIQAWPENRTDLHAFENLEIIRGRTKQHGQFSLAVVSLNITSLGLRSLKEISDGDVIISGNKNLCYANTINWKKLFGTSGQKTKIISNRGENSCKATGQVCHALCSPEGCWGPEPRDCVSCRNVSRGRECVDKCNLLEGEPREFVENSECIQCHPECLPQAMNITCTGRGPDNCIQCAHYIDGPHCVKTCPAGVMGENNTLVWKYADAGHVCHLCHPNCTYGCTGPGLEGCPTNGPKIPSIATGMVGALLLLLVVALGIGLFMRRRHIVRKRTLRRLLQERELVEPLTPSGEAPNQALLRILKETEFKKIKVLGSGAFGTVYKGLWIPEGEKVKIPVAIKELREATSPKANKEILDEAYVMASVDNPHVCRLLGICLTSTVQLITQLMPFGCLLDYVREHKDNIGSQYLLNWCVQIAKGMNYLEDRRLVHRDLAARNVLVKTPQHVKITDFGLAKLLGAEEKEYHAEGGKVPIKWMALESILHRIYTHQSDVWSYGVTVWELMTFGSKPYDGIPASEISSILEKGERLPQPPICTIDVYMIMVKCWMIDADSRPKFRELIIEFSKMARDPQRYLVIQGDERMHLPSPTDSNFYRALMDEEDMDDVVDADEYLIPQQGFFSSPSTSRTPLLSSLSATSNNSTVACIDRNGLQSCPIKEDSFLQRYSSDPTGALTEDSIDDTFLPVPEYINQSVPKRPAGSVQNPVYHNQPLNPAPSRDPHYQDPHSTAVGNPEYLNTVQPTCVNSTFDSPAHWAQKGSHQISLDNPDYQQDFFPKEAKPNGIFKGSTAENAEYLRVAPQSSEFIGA

TMD-8 cells = experiment: BTK (wt) cell proliferation, TMD-8 (CellTiter-Glo, 72 h); conditions: Homo sapiens, TMD8, 72 h, TMD-8 cells, 72 h, CellTiter-Glo; read-out: BTK WT TMD-8 GI50;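 further: viable cells quantified by ATP-based luminescence, proliferation expressed as percent of DMSO control after subtracting a time-zero baseline plate read at dosing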
[1] = molecular target: T2, human EGFR exon 20 H773_V774insNPH (Homo sapiens, UniProt P00533, INS773NPH); experiment: EGFR Exon20 NPH insertion cellular phosphorylation inhibition (MSD pEGFR Y1068/total EGFR); conditions: Ba/F3 EGFR NPH ins cells, 4 h compound, p-EGFR(Y1068)/total EGFR;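 further: IL3-independent Ba/F3 cells with constitutively phosphorylated EGFR, compound exposure at 37 °C under 5% CO2, electrochemiluminescent MSD measurement of the p-EGFR to total EGFR ratio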
T2 construct: host or cells: Ba/F3

EGFR L858R&T790M = molecular target: T3, EGFR L858R&T790M (Homo sapiens, UniProt P00533, L858R/T790M); experiment: EGFR L858R and T790M cellular phosphorylation inhibition in NCI-H1975 (MSD); conditions: NCI-H1975 cells, 4 h compound, p-EGFR(Y1068)/total EGFR; read-out: EGFR L858R and T790M mutation IC50;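 further: phosphorylated and total EGFR detected by electrochemiluminescence, cells exposed to compound in medium containing 1% FBS at 37 °C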
T3 construct: host or cells: NCI-H1975
T3 sequence (P00533 25-1210 T790M/L858R): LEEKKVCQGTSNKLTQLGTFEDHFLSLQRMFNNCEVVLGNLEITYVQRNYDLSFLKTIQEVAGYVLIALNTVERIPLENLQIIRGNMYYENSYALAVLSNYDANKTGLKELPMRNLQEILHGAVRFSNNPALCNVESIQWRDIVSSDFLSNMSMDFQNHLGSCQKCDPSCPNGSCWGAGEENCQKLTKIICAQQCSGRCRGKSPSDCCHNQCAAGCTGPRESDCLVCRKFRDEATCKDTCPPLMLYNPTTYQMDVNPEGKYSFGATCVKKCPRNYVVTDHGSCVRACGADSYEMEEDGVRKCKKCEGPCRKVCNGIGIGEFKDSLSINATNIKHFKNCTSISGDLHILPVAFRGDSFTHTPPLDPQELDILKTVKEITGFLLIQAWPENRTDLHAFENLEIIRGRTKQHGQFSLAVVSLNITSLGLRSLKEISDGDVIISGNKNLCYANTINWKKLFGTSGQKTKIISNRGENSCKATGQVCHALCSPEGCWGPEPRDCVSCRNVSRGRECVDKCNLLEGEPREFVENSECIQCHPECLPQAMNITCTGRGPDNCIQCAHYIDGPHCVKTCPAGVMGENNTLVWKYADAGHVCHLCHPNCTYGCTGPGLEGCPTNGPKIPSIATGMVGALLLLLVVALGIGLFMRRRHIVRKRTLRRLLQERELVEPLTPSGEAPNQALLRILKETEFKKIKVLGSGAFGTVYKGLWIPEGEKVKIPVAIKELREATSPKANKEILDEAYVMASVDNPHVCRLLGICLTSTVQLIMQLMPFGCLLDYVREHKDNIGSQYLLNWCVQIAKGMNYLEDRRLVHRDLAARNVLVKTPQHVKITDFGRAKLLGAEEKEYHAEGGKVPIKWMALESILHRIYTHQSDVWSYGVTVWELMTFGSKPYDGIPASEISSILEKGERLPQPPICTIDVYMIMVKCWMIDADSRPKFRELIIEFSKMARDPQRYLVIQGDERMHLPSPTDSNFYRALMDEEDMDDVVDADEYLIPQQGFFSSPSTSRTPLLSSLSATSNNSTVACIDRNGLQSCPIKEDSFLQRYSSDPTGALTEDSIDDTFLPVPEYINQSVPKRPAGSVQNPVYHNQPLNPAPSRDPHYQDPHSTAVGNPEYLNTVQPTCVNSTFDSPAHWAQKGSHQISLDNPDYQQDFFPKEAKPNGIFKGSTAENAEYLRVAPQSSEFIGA

[2] = test system: Her2 exon 20 insertion YVMA transduced NIH-3T3 cell line; experiment: Cell proliferation, Her2 YVMAins NIH-3T3 (CellTiter-Glo, 72 h); conditions: Mus musculus, NIH3T3, 72 h, Her2 YVMAins cells, 72 h proliferation; read-out: Her2 Exon 20 YVMA insertion GI50;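 further: viable cells quantified by ATP luminescence, growth over a day-zero baseline plate expressed as percent of DMSO control growth, compound dilution series in 10% FBS medium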
WT EGFR cell line A-431 = experiment: Cell proliferation, WT EGFR A431 (CellTiter-Glo, 72 h); conditions: Homo sapiens, A-431, 72 h;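 further: proliferation from a luminescent ATP viability signal, expressed as 100 × (treated minus time-zero plate) over (DMSO control minus time-zero plate), cells grown with 10% FBS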
[3] = molecular target: T4, human Her2 exon 20 insertion mutation YVMA (Homo sapiens, UniProt P04626, INS775YVMA); experiment: Her2 Exon 20 YVMA insertion cellular phosphorylation inhibition (MSD p-Her2 Y1248/total Her2); conditions: Her2 YVMAins cells, 4 h compound;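 further: lentivirally transduced NIH-3T3 cells in 1% FBS medium, electrochemiluminescent MSD read-out, graded compound concentrations at 37 °C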
T4 construct: expressed in transfected cells; host or cells: NIH-3T3, lentiviral transduction, puromycin selection
T4 sequence (P04626 with tags, fused parts or gaps INS775YVMA): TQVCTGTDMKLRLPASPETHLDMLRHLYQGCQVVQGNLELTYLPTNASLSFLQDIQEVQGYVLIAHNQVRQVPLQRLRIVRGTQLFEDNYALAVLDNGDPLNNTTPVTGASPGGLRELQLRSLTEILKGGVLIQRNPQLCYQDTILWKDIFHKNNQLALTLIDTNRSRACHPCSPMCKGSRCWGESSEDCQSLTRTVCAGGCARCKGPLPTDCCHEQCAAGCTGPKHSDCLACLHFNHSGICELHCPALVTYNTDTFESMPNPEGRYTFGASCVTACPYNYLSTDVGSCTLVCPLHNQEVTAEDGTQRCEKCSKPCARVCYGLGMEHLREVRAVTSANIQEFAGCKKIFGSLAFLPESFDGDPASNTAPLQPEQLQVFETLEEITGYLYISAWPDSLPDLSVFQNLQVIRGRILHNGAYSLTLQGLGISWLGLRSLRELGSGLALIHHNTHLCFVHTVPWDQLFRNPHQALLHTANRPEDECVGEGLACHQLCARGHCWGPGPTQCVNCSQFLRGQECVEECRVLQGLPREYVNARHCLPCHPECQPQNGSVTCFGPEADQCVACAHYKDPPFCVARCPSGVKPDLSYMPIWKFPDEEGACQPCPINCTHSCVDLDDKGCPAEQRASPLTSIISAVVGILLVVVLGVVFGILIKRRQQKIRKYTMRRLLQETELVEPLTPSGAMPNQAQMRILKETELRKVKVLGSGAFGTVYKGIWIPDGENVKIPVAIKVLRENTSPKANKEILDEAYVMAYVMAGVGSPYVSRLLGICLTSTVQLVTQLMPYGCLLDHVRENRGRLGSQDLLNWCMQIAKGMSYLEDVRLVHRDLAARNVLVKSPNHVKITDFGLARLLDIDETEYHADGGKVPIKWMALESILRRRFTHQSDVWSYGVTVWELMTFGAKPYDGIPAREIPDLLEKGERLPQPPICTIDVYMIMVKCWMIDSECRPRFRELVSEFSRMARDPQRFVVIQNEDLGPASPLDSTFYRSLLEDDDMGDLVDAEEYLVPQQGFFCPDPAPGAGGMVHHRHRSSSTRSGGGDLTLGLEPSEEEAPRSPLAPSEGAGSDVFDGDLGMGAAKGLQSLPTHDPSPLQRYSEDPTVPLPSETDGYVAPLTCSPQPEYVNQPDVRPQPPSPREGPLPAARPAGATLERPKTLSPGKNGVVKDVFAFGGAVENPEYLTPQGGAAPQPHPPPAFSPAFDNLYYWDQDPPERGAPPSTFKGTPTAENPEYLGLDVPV
Protocol: The resulting cell line expressed phosphorylated Her2 protein and its proliferation depended on the mutation gene, which could be used for in vitro PD and anti-proliferation assays.
One day before the test, WT or mutant cells were seeded in 96 well plates at appropriate concentrations with corresponding growth media supplemented with 1% FBS, and incubated overnight. The next day, tested compounds at a series of concentrations were added into each individual well of the plates, and the plates were incubated for 4 h at 37° C. with 5% CO2.
The EGFR (Y1068) phosphorylation level (activity) of cells in each well were then measured with MSD kit named “MULTI-SPOT®96 4-Spot HB Prototype EGFR Triplex [sequence]: pEGFR(Tyr1068),pEGFR(Tyr1173), Total EGFR” according to the manufacturer’s instruction (MESO SCALE DISCOVERY, Cat# N45ZB-1). The assay is an electrochemiluminescent method for determining both phosphorylated and total EGFR of cells with an MSD SECTOR® Imager and the ratio of p-EGFR/total EGFR can be generated by the machine. The Her2 (Y1248) phosphorylation level (activity) of cells in each well were measured with MSD Kit named “Phospho-ErbB2 (Tyr1248) Assay Whole Cell Lysate Kit” according to the manufacturer’s instruction (MESO SCALE DISCOVERY, Cat# K151CLD-3). The assay is an electrochemiluminescent method (MESO SCALE DISCOVERY) for determining both phosphorylated and total Her2 of cells with an MSD SECTOR® Imager and then the ratio of p-Her2/total Her2 can be generated by the machine.

[4] = molecular target: T5, human EGFR exon 20 V769_D770insASV (Homo sapiens, UniProt P00533, INS769ASV); experiment: EGFR Exon20 ASV insertion cellular phosphorylation inhibition (MSD pEGFR Y1068/total EGFR); conditions: Ba/F3 EGFR ASV ins cells, 4 h compound, p-EGFR(Y1068)/total EGFR;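 further: electrochemiluminescent readout on an MSD SECTOR Imager, IL3-independent transduced cells in medium with 1% FBS, compound concentration series at 37 °C and 5% CO2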
T5 construct: expressed in transfected cells; host or cells: Ba/F3 (DSMZ ACC-300), lentiviral transduction, puromycin selection, IL3 depletion
T5 sequence (P00533 with tags, fused parts or gaps INS769ASV): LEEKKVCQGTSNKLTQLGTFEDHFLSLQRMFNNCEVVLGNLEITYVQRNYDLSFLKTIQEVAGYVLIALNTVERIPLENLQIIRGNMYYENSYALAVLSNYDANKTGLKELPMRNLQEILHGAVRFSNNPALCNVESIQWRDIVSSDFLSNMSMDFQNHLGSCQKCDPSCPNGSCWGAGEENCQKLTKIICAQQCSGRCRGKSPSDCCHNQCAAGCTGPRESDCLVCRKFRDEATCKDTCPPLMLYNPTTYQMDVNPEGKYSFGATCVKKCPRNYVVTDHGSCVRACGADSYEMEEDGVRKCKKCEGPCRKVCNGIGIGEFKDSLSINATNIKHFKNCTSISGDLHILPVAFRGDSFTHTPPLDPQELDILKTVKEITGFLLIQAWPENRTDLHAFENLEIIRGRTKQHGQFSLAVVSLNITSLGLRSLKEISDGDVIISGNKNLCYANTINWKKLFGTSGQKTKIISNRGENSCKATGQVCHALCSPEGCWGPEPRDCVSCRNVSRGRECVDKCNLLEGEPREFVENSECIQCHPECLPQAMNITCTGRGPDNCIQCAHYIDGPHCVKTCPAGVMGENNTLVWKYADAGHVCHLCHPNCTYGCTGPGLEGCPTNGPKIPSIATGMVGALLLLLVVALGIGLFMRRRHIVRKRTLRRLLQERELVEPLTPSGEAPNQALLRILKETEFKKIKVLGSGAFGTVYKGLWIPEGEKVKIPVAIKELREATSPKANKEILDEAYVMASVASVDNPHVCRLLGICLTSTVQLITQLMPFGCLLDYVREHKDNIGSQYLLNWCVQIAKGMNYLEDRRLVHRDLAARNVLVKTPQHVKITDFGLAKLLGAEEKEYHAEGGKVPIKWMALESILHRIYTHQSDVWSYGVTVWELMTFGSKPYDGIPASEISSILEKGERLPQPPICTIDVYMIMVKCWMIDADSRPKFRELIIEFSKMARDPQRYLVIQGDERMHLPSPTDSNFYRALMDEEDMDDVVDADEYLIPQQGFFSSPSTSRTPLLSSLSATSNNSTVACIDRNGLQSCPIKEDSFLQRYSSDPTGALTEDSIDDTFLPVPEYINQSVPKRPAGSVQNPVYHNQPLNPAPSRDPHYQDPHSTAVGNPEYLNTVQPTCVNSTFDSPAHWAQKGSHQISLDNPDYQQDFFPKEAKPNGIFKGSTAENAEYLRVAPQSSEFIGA

Ba/F3 EGFR NPH ins cells = experiment: Cell proliferation, Ba/F3 EGFR NPH ins (CellTiter-Glo, 72 h); conditions: Ba/F3 EGFR, 72 h;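 further: IL3-independent cells carrying constitutively phosphorylated EGFR, compound dilution series, viable cells quantified by ATP luminescence, growth relative to DMSO wells after subtracting pre-dosing (day 0) baseline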
Ri-1 cells = experiment: BTK (wt) cell proliferation, Ri-1 (CellTiter-Glo, 72 h); conditions: Ri-1, 72 h, Ri-1 cells, 72 h, CellTiter-Glo; read-out: BTK WT Ri-1 GI50;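 further: viable cells quantified as cellular ATP luminescence, proliferation normalized to a time-zero plate and the DMSO control, compounds tested across a dilution series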
[5] = test system: NCI-H1975 EGFR L858R/T790M cells; experiment: Cell proliferation, NCI-H1975 EGFR L858R/T790M (CellTiter-Glo, 72 h); conditions: Homo sapiens, NCI-H1975, 72 h;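 further: viable cells quantified by luciferase-based ATP luminescence, proliferation expressed relative to DMSO-treated wells (100%) after subtracting a parallel plate read at the time of dosing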
[6] = Ba/F3 EGFR ASV ins, 72 h proliferation, read-out: EGFR Exon20 ASV insertion GI50
[7] = A431, 72 h proliferation, read-out: EGFR WT A431 GI50
[8] = Ba/F3 EGFR NPH ins, 72 h proliferation, read-out: EGFR Exon20 NPH insertion GI50
[9] = NCI-H1975, 72 h proliferation, read-out: EGFR L858R and T790M mutation GI50

SMILES	GI50 (Ba/F3 EGFR ASV ins cells; [6]) [nM]	GI50 (OCI-LY-10 cells) [nM]	pIC50 (WT EGFR)	pIC50 [1]	pIC50 (EGFR L858R&T790M)	GI50 (WT EGFR cell line A-431; [7]) [nM]	pIC50 [3]	pIC50 [4]	GI50 (Ba/F3 EGFR NPH ins cells; [8]) [nM]	GI50 [5, 9] [nM]	GI50 (DB cells) [nM]	GI50 (TMD-8 cells) [nM]	GI50 [2] [nM]	GI50 (Ri-1 cells) [nM]	GI50 (Ba/F3 EGFR ASV ins cells; read-out: EGFR Exon20 ASV insertion GI50 (nM)) [nM]	GI50 (WT EGFR cell line A-431; read-out: EGFR WT A431 GI50 (nM)) [nM]	GI50 (Ba/F3 EGFR NPH ins cells; read-out: EGFR Exon20 NPH insertion GI50 (nM)) [nM]	GI50 ([5]; read-out: EGFR L858R and T790M mutation GI50 (nM)) [nM]
C=CC(=O)Nc1cc(Nc2ncnc(Nc3cc(Cl)c(F)cc3C(C)(O)CC)n2)c(OC)cc1N1CC[C@@H]1CN(C)C (stereo partly drawn) [Compound 56, N-(5-(4-(5-chloro-4-fluoro-2-(2-hydroxybutan-2-yl)phenylamino)-1,3,5-triazin-2-ylamino)-2-((R)-2-((dimethylamino)methyl)azetidin-1-yl)-4-methoxyphenyl)acrylamide]	45.1	14.6	7.45	7.75	9.00	14.3	8.11	7.81	63.8	4.2	> 3000	7.07	76.6	13.4	–	–	–	–
C=CC(=O)Nc1cc(Nc2ncnc(Nc3cc(F)c(F)cc3C(C)(O)CC)n2)c(OC)cc1N1CCC[C@@H]1CN(C)C (stereo partly drawn) [Compound 57, N-(5-(4-(4,5-difluoro-2-(2-hydroxybutan-2-yl)phenylamino)-1,3,5-triazin-2-ylamino)-2-((R)-2-((dimethylamino)methyl)pyrrolidin-1-yl)-4-methoxyphenyl)acrylamide]	11.4	72	7.98	8.07	9.40	6.1	8.59	8.15	14.8	1.3	> 3000	22.9	18.7	34.6	–	–	–	–
C=CC(=O)Nc1cc(Nc2ncnc(Nc3cc(F)c(F)cc3C(C)(O)CC)n2)c(OC)cc1N1CCC[C@H]1CN(C)C (stereo partly drawn) [Compound 58, N-(5-(4-(4,5-difluoro-2-(2-hydroxybutan-2-yl)phenylamino)-1,3,5-triazin-2-ylamino)-2-((S)-2-((dimethylamino)methyl)pyrrolidin-1-yl)-4-methoxyphenyl)acrylamide]	251	320	6.20	6.53	8.44	178	6.93	7.11	210	13.1	> 3000	262	553	372	–	–	–	–
C=CC(=O)Nc1cc(Nc2ncnc(Nc3cc(Cl)c(F)cc3C(C)(C)O)n2)c(OC)cc1N1CC[C@H](N(C)C)C1 [Compound 60, (S)-N-(5-(4-(5-chloro-4-fluoro-2-(2-hydroxypropan-2-yl)phenylamino)-1,3,5-triazin-2-ylamino)-2-(3-(dimethylamino)pyrrolidin-1-yl)-4-methoxyphenyl)acrylamide]	76.3	13.5	7.29	7.54	8.89	25	7.94	7.65	48.6	2.5	> 3000	11.5	102	38.9	–	–	–	–
C=CC(=O)Nc1cc(Nc2ncnc(Nc3cc(Cl)c(F)cc3C3(O)CCC3)n2)c(OC)cc1N(C)CCN(C)C [Compound 72, N-(5-(4-(5-chloro-4-fluoro-2-(1-hydroxycyclobutyl)phenylamino)-1,3,5-triazin-2-ylamino)-2-((2-(dimethylamino)ethyl)(methyl)amino)-4-methoxyphenyl)acrylamide formic acid salt]	–	2.9	7.58	7.73	9.22	–	8.05	8.10	–	–	> 3000	7.3	38.9	33.3	42.3	10.4	46.1	4.1

The next lines start with results.

GI50 (Ba/F3 EGFR ASV ins cells; [6]) [nM]	GI50 (OCI-LY-10 cells) [nM]	pIC50 (WT EGFR)	pIC50 [1]	pIC50 (EGFR L858R&T790M)	GI50 (WT EGFR cell line A-431; [7]) [nM]	pIC50 [3]	pIC50 [4]	GI50 (Ba/F3 EGFR NPH ins cells; [8]) [nM]	GI50 [5, 9] [nM]	SMILES	GI50 (DB cells) [nM]	GI50 (TMD-8 cells) [nM]	GI50 [2] [nM]	GI50 (Ri-1 cells) [nM]	GI50 (Ba/F3 EGFR ASV ins cells; read-out: EGFR Exon20 ASV insertion GI50 (nM)) [nM]	GI50 (WT EGFR cell line A-431; read-out: EGFR WT A431 GI50 (nM)) [nM]	GI50 (Ba/F3 EGFR NPH ins cells; read-out: EGFR Exon20 NPH insertion GI50 (nM)) [nM]	GI50 ([5]; read-out: EGFR L858R and T790M mutation GI50 (nM)) [nM]
34.8	5.3	7.56	7.71	9.30	13.3	7.94	7.97	45.8	3.2	C=CC(=O)Nc1cc(Nc2ncnc(Nc3cc(F)c(Cl)cc3C(C)(C)O)n2)c(OC)cc1N1CC[C@@H]1CN(C)C [Compound 62, (R)-N-(5-(4-(4-chloro-5-fluoro-2-(2-hydroxypropan-2-yl)phenylamino)-1,3,5-triazin-2-ylamino)-2-(2-((dimethylamino)methyl)azetidin-1-yl)-4-methoxyphenyl)acrylamide]	> 3000	3.79	114	84	–	–	–	–
13.6	63.3	7.84	8.23	9.40	4.4	8.85	8.19	17.2	1.1	C=CC(=O)Nc1cc(Nc2ncnc(Nc3cc(Cl)c(F)cc3C(C)(O)CC)n2)c(OC)cc1N1CCC[C@@H]1CN(C)C (stereo partly drawn) [Compound 63, N-(5-(4-(5-chloro-4-fluoro-2-(2-hydroxybutan-2-yl)phenylamino)-1,3,5-triazin-2-ylamino)-2-((R)-2-((dimethylamino)methyl)pyrrolidin-1-yl)-4-methoxyphenyl)acrylamide]	> 3000	11.6	23.6	14.9	–	–	–	–
25.4	> 3000	7.63	7.68	9.22	14.9	8.09	8.02	22.6	2.3	C=CC(=O)Nc1cc(Nc2ncnc(Nc3ccccc3C(C)(O)C(F)(F)F)n2)c(OC)cc1N(C)CCN(C)C (centres unmarked) [Compound 66, N-(2-((2-(dimethylamino)ethyl)(methyl)amino)-4-methoxy-5-(4-(2-(1,1,1-trifluoro-2-hydroxypropan-2-yl)phenylamino)-1,3,5-triazin-2-ylamino)phenyl) acrylamide]	> 3000	582	29.1	> 3000	–	–	–	–
21.9	20.4	7.58	7.87	9.22	18.7	8.37	8.00	32.8	2.5	C=CC(=O)Nc1cc(Nc2ncnc(Nc3cc(Cl)c(F)cc3C(C)(O)CC)n2)c(OC)cc1N(C)CCN(C)C (centres unmarked) [Compound 67, N-(5-(4-(5-chloro-4-fluoro-2-(2-hydroxybutan-2-yl)phenylamino)-1,3,5-triazin-2-ylamino)-2-((2-(dimethylamino)ethyl)(methyl)amino)-4-methoxyphenyl)acrylamide]	> 3000	16	46.3	47.9	–	–	–	–
89.8	12.4	6.67	7.29	8.89	34.9	7.71	7.51	74.7	8.3	C=CC(=O)Nc1cc(Nc2nccc(Nc3cc(Cl)c(Cl)cc3C(C)(C)O)n2)c(OC)cc1N1CC[C@@H]1CN(C)C [Compound 71, (R)-N-(5-(4-(4,5-dichloro-2-(2-hydroxypropan-2-yl)phenylamino)pyrimidin-2-ylamino)-2-(2-((dimethylamino)methyl)azetidin-1-yl)-4-methoxyphenyl)a crylamide]	2950	4.8	86.2	23.5	–	–	–	–
